# Measurements as given in patent publication US10787443B2, “RAF-degrading conjugate compounds” (ZAMBONI CHEM SOLUTIONS INC., priority 2017, dated 2020).
# System: GST-Braf kinase domain and biotinylated E3 substrate adapter (VHL/EloB/EloC complex or CRBN318-425)
# Assay: Dimerization assay (AlphaScreen/AlphaLisa), RAF/E3 dimerization
# Type: binding
# Conditions: Table 15; relative value; compounds 4 fold serial dilutions from 20 μM
row,Compound,RAF/E3 Dimerization
1,"Cc1ncc(NC(=O)c2cccc(C(F)(F)F)c2)cc1-c1cnc(OCCCCCCc2cn(CCCCCC(=O)Nc3cccc4c3C(=O)N(C3CCC(=O)NC3=O)C4=O)nn2)c(N2CCOCC2)c1 (stereo not shown) [Compound 1.006, N-(6′-((6-(1-(6-((2-(2,6-dioxopiperidin-3-yl)-1,3-dioxoisoindolin-4-yl)amino)-6-oxohexyl)-1H-1,2,3-triazol-4-yl)hexyl)oxy)-2-methyl-5′-morpholino-[3,3′-bipyridin]-5-yl)-3-(trifluoromethyl)benzamide]",+ (5% > RAF/E3 Dimerization)
2,"Cc1ncc(NC(=O)c2cccc(C(F)(F)F)c2)cc1-c1cnc(OCCCc2cn(CCCCCC(=O)Nc3cccc4c3C(=O)N(C3CCC(=O)NC3=O)C4=O)nn2)c(N2CCOCC2)c1 (stereo not shown) [Compound 1.003, N-(6′-(3-(1-(6-((2-(2,6-dioxopiperidin-3-yl)-1,3-dioxoisoindolin-4-yl)amino)-6-oxohexyl)-1H-1,2,3-triazol-4-yl)propoxy)-2-methyl-5′-morpholino-[3,3′-bipyridin]-5-yl)-3-(trifluoromethyl)benzamide]",+ +
3,"Cc1ncc(NC(=O)c2cccc(C(F)(F)F)c2)cc1-c1cnc(OCCCCc2cn(CCCCCC(=O)Nc3cccc4c3C(=O)N(C3CCC(=O)NC3=O)C4=O)nn2)c(N2CCOCC2)c1 (stereo not shown) [Compound 1.004, N-(6′-(4-(1-(6-((2-(2,6-dioxopiperidin-3-yl)-1,3-dioxoisoindolin-4-yl)amino)-6-oxohexyl)-1H-1,2,3-triazol-4-yl)butoxy)-2-methyl-5′-morpholino-[3,3′-bipyridin]-5-yl)-3-(trifluoromethyl)benzamide]",+ (5% > RAF/E3 Dimerization)
4,"Cc1ncc(NC(=O)c2cccc(C(F)(F)F)c2)cc1-c1cnc(OCCc2cn(CCCCCC(=O)Nc3cccc4c3C(=O)N(C3CCC(=O)NC3=O)C4=O)nn2)c(N2CCOCC2)c1 (stereo not shown) [Compound 1.002, N-(6′-(2-(1-(6-((2-(2,6-dioxopiperidin-3-yl)-1,3-dioxoisoindolin-4-yl)amino)-6-oxohexyl)-1H-1,2,3-triazol-4-yl)ethoxy)-2-methyl-5′-morpholino-[3,3′-bipyridin]-5-yl)-3-(trifluoromethyl)benzamide]",+ (5% > RAF/E3 Dimerization)

# Same assay, conditions: Table 17; relative value; compounds 4 fold serial dilutions from 20 μM
row,Compound,RAF/E3 Dimerization
1,"Cc1ncc(NC(=O)c2cccc(C(F)(F)F)c2)cc1-c1cnc(OCCOCCOCC(=O)NCCOCCCc2cccc3c2C(=O)N(C2CCC(=O)NC2=O)C3=O)c(N2CCOCC2)c1 (stereo not shown) [Compound 2.023, N-(6′-((15-(2-(2,6-dioxopiperidin-3-yl)-1,3-dioxoisoindolin-4-yl)-8-oxo-3,6,12-trioxa-9-azapentadecyl)oxy)-2-methyl-5′-morpholino-[3,3′-bipyridin]-5-yl)-3-(trifluoromethyl)ben-zamide]",+ (5% > RAF/E3 Dimerization)
2,"Cc1ncc(NC(=O)c2cccc(C(F)(F)F)c2)cc1-c1cnc(OCCOCCOCCOCC(=O)NCCCCCCc2cccc3c2CN(C2CCC(=O)NC2=O)C3=O)c(N2CCOCC2)c1 (stereo not shown) [Compound 2.018, N-(6′-((18-(2-(2,6-dioxopiperidin-3-yl)-1-oxoisoindolin-4-yl)-11-oxo-3,6,9-trioxa-12-azaoctadecyl)oxy)-2-methyl-5′-morpholino-[3,3′-bipyridin]-5-yl)-3-(trifluoromethyl)benzamide]",++++ (75% > RAF/E3 Dimerization ≥ 50%)
3,"O=C1CCC(N2Cc3c(CCCCCCOCCOCCNC(=O)c4cc(Oc5ccc(NC(=O)Nc6ccc(Cl)c(C(F)(F)F)c6)cc5)ccn4)cccc3C2=O)C(=O)N1 (stereo not shown) [Compound 2.034, 4-(4-(3-(4-chloro-3-(trifluoromethyl)phenyl)ureido)phenoxy)-N-(2-(2-((6-(2-(2,6-dioxopiperidin-3-yl)-1-oxoisoindolin-4-yl)hexyl)oxy)ethoxy)ethyl)picolinamide]",++ (25% > RAF/E3 Dimerization ≥ 5%)
4,"Cc1ncc(NC(=O)c2cccc(C(F)(F)F)c2)cc1-c1cnc(OCCOCCOCCOCc2cn(CCCCC(=O)N[C@@H](C(=O)N3C[C@H](O)C[C@H]3C(=O)N[C@@H](C)c3ccc(-c4scnc4C)cc3)C(C)(C)C)nn2)c(N2CCOCC2)c1 [Compound 2.009, (2S,4R)-1-((R)-3,3-dimethyl-2-(5-(4-((2-(2-(2-((2′-methyl-5-morpholino-5′-(3-(trifluoromethyl)benzamido)-[3,3′-bipyridin]-6-yl)oxy)ethoxy)ethoxy)ethoxy)methyl)-1H-1,2,3-triazol-1-yl)pentanamido)butanoyl)-4-hydroxy-N—((S)-1-(4-(4-methylthiazol-5-yl)phenyl)ethyl)pyrrolidine-2-carboxamide]",+++ (50% > RAF/E3 Dimerization ≥ 25)
5,"Cc1ccc(NC(=O)c2cccc(C(F)(F)F)c2)cc1-c1cnc(OCCOCCOCCOCc2cn(CCCCCC(=O)N[C@@H](C(=O)N3C[C@H](O)C[C@H]3C(=O)N[C@@H](C)c3ccc(-c4scnc4C)cc3)C(C)(C)C)nn2)c(N2CCOCC2)c1 [Compound 2.011, (2S,4R)-1-((R)-3,3-dimethyl-2-(6-(4-((2-(2-(2-((5-(2-methyl-5-(3-(trifluoromethyl)benza-mido)phenyl)-3-morpholinopyridin-2-yl)oxy)ethoxy)ethoxy)ethoxy)methyl)-1H-1,2,3-triazol-1-yl)hexanamido)butanoyl)-4-hydroxy-N—((S)-1-(4-(4-methylthiazol-5-yl)phenyl)-ethyl)pyrrolidine-2-carboxamide]",+++++ (RAF/E3 Dimerization ≥75%)

# The next lines start with the values.
row,RAF/E3 Dimerization,Compound
1,+ (5% > RAF/E3 Dimerization),"CNc1ncc2cc(-c3cc(NC(=O)NCCOCCOCCOCCOCCOCC(=O)N[C@@H](C(=O)N4C[C@H](O)C[C@H]4C(=O)N[C@@H](C)c4ccc(-c5scnc5C)cc4)C(C)(C)C)c(F)cc3C)c(C)nc2n1 [Compound 2.040, (2S,4R)-1-((R)-21-(tert-butyl)-1-((2-fluoro-4-methyl-5-(7-methyl-2-(methylamino)pyrido[2,3-d]pyrimidin-6-yl)phenyl)amino)-1,19-dioxo-5,8,11,14,17-pentaoxa-2,20-diazadocosan-22-oyl)-4-hydroxy-N—((S)-1-(4-(4-methylthiazol-5-yl)phenyl)ethyl)pyrrolidine-2-carboxamide]"
2,++ (25% > RAF/E3 Dimerization ≥ 5%),"O=C1CCC(N2Cc3c(CCCOCCOCCNC(=O)c4cc(Oc5ccc(NC(=O)Nc6ccc(Cl)c(C(F)(F)F)c6)cc5)ccn4)cccc3C2=O)C(=O)N1 (stereo not shown) [Compound 2.033, 4-(4-(3-(4-chloro-3-(trifluoromethyl)phenyl)ureido)phenoxy)-N-(2-(2-(3-(2-(2,6-dioxopiperidin-3-yl)-1-oxoisoindolin-4-yl)propoxy)ethoxy)ethyl)picolinamide]"
3,+++++ (RAF/E3 Dimerization ≥75%),"CCCCCCNC(=O)Nc1cc(-c2cc3cnc(NCCOCCOCc4cn(CCCCCC(=O)N[C@@H](C(=O)N5C[C@H](O)C[C@H]5C(=O)N[C@@H](C)c5ccc(-c6scnc6C)cc5)C(C)(C)C)nn4)nc3nc2C)c(C)cc1F [Compound 2.039, (2S,4R)-1-((R)-2-(6-(4-((2-(2-((6-(4-fluoro-5-(3-hexylureido)-2-methylphenyl)-7-methylpyrido[2,3-d]pyrimidin-2-yl)amino)ethoxy)ethoxy)methyl)-1H-1,2,3-triazol-1-yl)hexanamido)-3,3-dimethylbutanoyl)-4-hydroxy-N—((S)-1-(4-(4-methylthiazol-5-yl)phenyl)ethyl)pyrrolidine-2-carboxamide]"
4,++ (25% > RAF/E3 Dimerization ≥ 5%),"O=C1CCC(N2C(=O)c3cccc(NC(=O)CCCCCn4cc(COCCOCCOCCNC(=O)c5cc(Oc6ccc(NC(=O)Nc7ccc(Cl)c(C(F)(F)F)c7)cc6)ccn5)nn4)c3C2=O)C(=O)N1 (stereo not shown) [Compound 2.027, 4-(4-(3-(4-chloro-3-(trifluoromethyl)phenyl)ureido)phenoxy)-N-(2-(2-(2-((1-(6-((2-(2,6-dioxopiperidin-3-yl)-1,3-dioxoisoindolin-4-yl)amino)-6-oxohexyl)-1H-1,2,3-triazol-4-yl)methoxy)ethoxy)ethoxy)ethyl)picolinamide]"
5,+++++ (RAF/E3 Dimerization ≥75%),"Cc1ncsc1-c1ccc([C@H](C)NC(=O)[C@@H]2C[C@@H](O)CN2C(=O)[C@H](NC(=O)COCCOCCOCCOCCCCCCn2cc(-c3ccnc(NCCC#N)n3)c(-c3cnc4[nH]ccc4c3)n2)C(C)(C)C)cc1 [Compound 2.045, (2S,4R)-1-((R)-2-(tert-butyl)-21-(4-(2-((2-cyanoethyl)amino)pyrimidin-4-yl)-3-(1H-pyrrolo[2,3-b]pyridin-5-yl)-H-pyrazol-1-yl)-4-oxo-6,9,12,15-tetraoxa-3-azahenicosan-1-oyl)-4-hydroxy-N—((S)-1-(4-(4-methylthiazol-5-yl)phenyl)ethyl)pyrrolidine-2-carboxamide]"
6,+++ (50% > RAF/E3 Dimerization ≥ 25),"Cc1ncsc1-c1ccc([C@H](C)NC(=O)[C@@H]2C[C@@H](O)CN2C(=O)[C@H](NC(=O)COCCOCCNC(=O)CCNc2nccc(-c3cn(CC(F)F)nc3-c3cnc4[nH]ccc4c3)n2)C(C)(C)C)cc1 [Compound 2.046, (2S,4R)-1-((R)-2-(tert-butyl)-15-((4-(1-(2,2-difluoroethyl)-3-(1H-pyrrolo[2,3-b]pyridin-5-yl)-1H-pyrazol-4-yl)pyrimidin-2-yl)amino)-4,13-dioxo-6,9-dioxa-3,12-diazapentadecan-1-oyl)-4-hydroxy-N—((S)-1-(4-(4-methylthiazol-5-yl)phenyl)ethyl)pyrrolidine-2-carboxamide]"
7,+ (5% > RAF/E3 Dimerization),"O=C1CCC(N2Cc3c(CCCOCCNC(=O)c4cc(Oc5ccc(NC(=O)Nc6ccc(Cl)c(C(F)(F)F)c6)cc5)ccn4)cccc3C2=O)C(=O)N1 (stereo not shown) [Compound 2.032, 4-(4-(3-(4-chloro-3-(trifluoromethyl)phenyl)ureido)phenoxy)-N-(2-(3-(2-(2,6-dioxopiperidin-3-yl)-1-oxoisoindolin-4-yl)propoxy)ethyl)picolinamide]"
